Experiments:
[1] = test system: IMR90 cells; assay: H2O2-induced senescence of methylene blue-treated IMR90 cells; assay type: cell-based, human; conditions: continuous 100 nM; 10 μM H2O2
Protocol: In another experiment, the effect of hydrogen peroxide (H2O2) on senescence of methylene blue-treated cells was tested. IMR90 cells were seeded at an initial density of 0.5×10^6/dish and grown for two weeks in the presence of methylene blue prior to H2O2 treatment. Thereafter, cells were harvested weekly, counted, and seeded with or without methylene blue and/or 10 μM H2O2. Cells that were treated with hydrogen peroxide without methylene blue treatment had accelerated senescence. The H2O2-induced senescence was prevented when these cells were continuously treated with 100 nM methylene blue.

[2] = 300 mg/day for one year; cited from earlier work
[3] = 65 mg three times a day; cited from earlier work
[4] = rats; injected 1 mg/kg; cited from earlier work
[5] = test system: IMR90 cells; assay: Replicative life span of IMR90 cells (population doubling level)
[6] = test system: mitochondrial complex IV; assay: Level of mitochondrial complex IV in IMR90 cells (subunit II antibody, western blotting)

Row | Compound | H2O2-induced senescence [1] | depression compared with 15 mg/day placebo [2] | management of chronic renal calculous disease [3] | brain oxidative metabolism [4] | memory retention [4] | increase in PDL ([5]; IMR90 cells seeded in 5% oxygen) | delay of senescence ([5]; IMR90 cells seeded in air) | optimal concentration for delaying senescence ([5]; IMR90 cells seeded in air) | effect on complex IV ([6]; 1000 nM, IMR90 cells) | increase in level of complex IV above age-matched controls ([6]; IMR90 cells) | effect on senescence (replicative life span) ([5]; 100 nM, IMR90 cells) | effect on level of complex IV ([6]; IMR90 cells after treatment)
1 | CN(C)c1ccc2nc3ccc(=[N+](C)C)cc-3sc2c1 [methylene blue] | prevented | significantly less depressed | useful | improved | improved | 10-15 | 25-30 population doublings | 10 to 100 nM | caused removal of complex IV from the mitochondria | approximately 30% | – | –
2 | Nc1ccc2nc3ccc(N)cc3[s+]c2c1 [thionine] | – | – | – | – | – | – | – | – | – | – | effective | increase in complex IV

Reference: patent publication US20060188866A1, “Diaminophenothiazine compositions and uses thereof” (Children's Hospital Oakland Research Institute, priority 2005, published 2006)
